Earlier results in patent US20240335532A1, “NANOPARTICULATE FORMULATION” (NewImmune II, LLC, priority 2021, published 2024).
Like-named read-outs stand apart in the source and are kept apart here.

What was measured:
influenza [1] = conditions: 50 μg intraperitoneally, with influenza vaccine, mice
[2] = dermal exposure, mice
[3] = rats
[4] = intravenous 2 mg/kg/day, gestational Days 6-18, pregnant rabbits
[5] = 2000 and 5000 mg/kg under occlusion, rabbits
[6] = 30 mg subcutaneous dose, healthy human volunteers
influenza [7] = conditions: topical pre-treatment, young and elderly individuals
[8] = intravenous 0.5 to 5.0 mg/kg, dogs
[9] = monkeys
[10] = single subcutaneous dose, rats
[11] = mice

SMILES: CC(C)Cn1cnc2c(N)nc3ccccc3c21 [imiquimod, 1-(2-methylpropyl)imidazo[4,5-c]quinolin-4-amine]
- humoral immune responses against the virus (influenza [1]): significantly expedited and augmented
- protection against early lethal viral challenges (influenza [1]): conferred significant protection
- incidence of tumors or non-neoplastic lesions [2]: no increase
- single dose toxicity [3]: high degree of safety
- embryofetal toxicity or teratogenicity [4]: No treatment related effects
- dermal toxicity [5]: no deaths and no signs of toxicity other than mild transient erythema at the application site
- tolerability [6]: well tolerated
- immunogenicity of influenza vaccination (influenza [7]): significantly improves the immunogenicity
- cardiovascular and nervous system effects [8]: produced cardiac stimulation, central nervous system stimulation and some evidence of autonomic nervous system inhibition
- single dose toxicity [9]: high degree of safety
- subcutaneous lethal dose [10]: 20 mg/kg
- single dose toxicity [11]: high degree of safety
- pH of maximum solubility in aqueous solution (Britton-Robinson buffer): ≤ 2
- aqueous solubility (above pH 6): only sparingly soluble
- solubility in aqueous solution (physiological pH): very low solubility
